Reference: publication PMC4448986 (Pharmacology Research & Perspectives, 2015)
Converted amounts (≈) assume the structure as drawn.

How the values were obtained:
PK analysis in rats = assay type: in vivo; details: male, Sprague-Dawley, rat, plasma, po, 100 mg/kg
[1] = Water solubility by UV-vis; details: deionized water, 20 °C, thermodynamic from solid

AUC (PK analysis in rats): 51500 ng·h/mL
AUC(0-inf) (PK analysis in rats): 54300 ng·h/mL
AUC(0-t) (PK analysis in rats): 51500 ng·h/mL
Tmax (PK analysis in rats): 2 h
solubility at 24 h [1]: 0.28 ± 0.02 µM (≈ 0.0976 µg/mL)
Compound: C=C(c1ccc(C(=O)O)cc1)c1cc2c(cc1C)C(C)(C)CCC2(C)C [Compound 1, bexarotene]
